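Dose response: 5 concentrations. Exposure: 48 h. Format: 96-well plates. Endpoint: linear interpolation; highest concentration if not reached. GI50 marks 50% less growth. The concentration for full growth arrest is given as TGI.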
Experiments:
Assay in all cases: NCI anticancer screen, dose series, 48 h
CAKI-1 renal = tested on: CAKI-1 renal
DU-145 prostate = tested on: DU-145 prostate
HOP-92 NSCLC = tested on: HOP-92 NSCLC
MDA-MB-231 breast = tested on: MDA-MB-231 breast
MDA-MB-435 = tested on: MDA-MB-435
OVCAR-3 ovarian = tested on: OVCAR-3 ovarian
OVCAR-5 ovarian = tested on: OVCAR-5 ovarian
SK-OV-3 ovarian = tested on: SK-OV-3 ovarian
SNB-75 CNS = tested on: SNB-75 CNS
SR leukemia = tested on: SR leukemia
UO-31 renal = tested on: UO-31 renal

N=C(N)c1ccc(-c2ccc(-c3ccc(Cl)cc3Cl)o2)nc1
GI50 (CAKI-1 renal): 1520 nM
TGI (CAKI-1 renal): 2960 nM
GI50 (DU-145 prostate): 1780 nM
TGI (DU-145 prostate): 3210 nM
GI50 (HOP-92 NSCLC): 1440 nM
TGI (HOP-92 NSCLC): 2900 nM
GI50 (MDA-MB-231 breast): 1640 nM
TGI (MDA-MB-231 breast): 3160 nM
GI50 (MDA-MB-435): 1720 nM
TGI (MDA-MB-435): 3100 nM
GI50 (OVCAR-3 ovarian): 1810 nM
TGI (OVCAR-3 ovarian): 3230 nM
GI50 (OVCAR-5 ovarian): 1640 nM
TGI (OVCAR-5 ovarian): 3050 nM
GI50 (SK-OV-3 ovarian): 1770 nM
TGI (SK-OV-3 ovarian): 3520 nM
GI50 (SNB-75 CNS): 1460 nM
TGI (SNB-75 CNS): 2780 nM
GI50 (SR leukemia): 311 nM
TGI (SR leukemia): 1430 nM
GI50 (UO-31 renal): 1560 nM
TGI (UO-31 renal): 2920 nM
